Several values for one entry are separate records, joined by “and”; a condition that tells them apart may be missing. Equal values may be shown once.
Experiments:
[1] = system: Plasmodium berghei; test: Antimalarial activity against trophozoite-induced Plasmodium berghei in mice (Mus musculus); format: functional
[2] = system: Plasmodium berghei; test: Antimalarial effect against trophozoite-induced Plasmodium berghei in mice (Mus musculus) at 80 mg/kg subcutaneous dose; format: functional
[3] = The ratio of SD90 of the quinine hydrochloride, to the SD90 of the test substance for the Dose of 8.4 mg/kg; format: functional
[4] = system: Plasmodium berghei; test: Antimalarial effect against trophozoite-induced Plasmodium berghei in mice (Mus musculus) after 40 mg/kg subcutaneous dose; format: functional
[5] = system: Plasmodium berghei; test: Antimalarial activity against trophozoite-induced Plasmodium berghei in mice (Mus musculus) at 160 mg/kg subcutaneous dose; format: functional
[6] = system: Plasmodium berghei; test: Antimalarial effect against trophozoite-induced Plasmodium berghei in mice (Mus musculus) after 20 mg/kg subcutaneous dose; format: functional
[7] = system: Mus musculus; test: Number of mice cured at a subcutaneous dose of 640 mg/kg.; format: functional
[8] = system: Mus musculus; test: Number of mice cured at a dose of 320 mg/kg sc; format: functional; conditions: route subcutaneous, 320 mg/kg
[9] = The ratio of SD90 of the quinine hydrochloride, to the SD90 of the test substance for the Dose of 45 mg/kg; format: functional
[10] = system: Mus musculus; test: Number of toxic deaths at a dose of 640 mg/kg; format: toxicity, organism-based; set-up: dose 640 mg/kg; conditions: in vivo
[11] = system: Mus musculus; test: Number of toxic deaths at a dose of 160 mg/kg; format: toxicity, organism-based; set-up: dose 160 mg/kg; conditions: in vivo
[12] = system: Mus musculus; test: Number of toxic deaths at a dose of 320 mg/kg; format: toxicity, organism-based; set-up: dose 320 mg/kg; conditions: in vivo
[13] = system: Mus musculus; test: Antimalarial effect against trophozoite-induced Plasmodium berghei in mice (Mus musculus) at dosage of 320 mg/kg after subcutaneous administration;; format: functional
[14] = The ratio of SD90 of the quinine hydrochloride, to the SD90 of the test substance for the Dose of 40 mg/kg; format: functional
[15] = system: Mus musculus; test: Number of mice cured at a dose of 640 mg/kg sc; format: functional; conditions: route subcutaneous
[16] = system: Mus musculus; test: Number of mice cured at a subcutaneous dose of 320 mg/kg.; format: functional
[17] = system: Plasmodium berghei; test: Antimalarial effect against trophozoite-induced Plasmodium berghei in mice (Mus musculus) at 160 mg/kg subcutaneous dose; format: functional
[18] = system: Plasmodium berghei; test: Antimalarial effect against trophozoite-induced Plasmodium berghei in mice (Mus musculus) at 320 mg/kg subcutaneous dose; format: functional
[19] = system: Plasmodium berghei; test: (§1) Antimalarial effect against trophozoite-induced Plasmodium berghei in mice (Mus musculus) at 640 mg/kg subcutaneous dose; format: functional
[20] = The ratio of SD90 of the quinine hydrochloride, to the SD90 of the test substance for the Dose of 38 mg/kg; format: functional
[21] = system: Mus musculus; test: Antimalarial effect against trophozoite induced Plasmodium berghei in mice (Mus musculus) at dosage of 320 mg/kg after subcutaneous administration; No. of mice (Mus musculus) surviving after 60 days 3; format: functional
[22] = system: Mus musculus; test: Number of mice cured at a subcutaneous dose of 160 mg/kg.; format: functional
[23] = The ratio of SD90 of the quinine hydrochloride, to the SD90 of the test substance for the Dose of 6.3 mg/kg; format: functional
[24] = system: Mus musculus; test: Antimalarial effect against trophozoite induced Plasmodium berghei in mice (Mus musculus) at dosage of 40 mg/kg after subcutaneous administration; format: functional
[25] = The ratio of SD90 of the quinine hydrochloride, to the SD90 of the test substance for the Dose of 36 mg/kg; format: functional
[26] = The ratio of SD90 of the quinine hydrochloride, to the SD90 of the test substance for the Dose of 155 mg/kg; format: functional
[27] = system: Mus musculus; test: Antimalarial effect against trophozoite-induced Plasmodium berghei in mice (Mus musculus) at dosage of 80 mg/kg after subcutaneous administration; format: functional
[28] = system: Mus musculus; test: Antimalarial effect against trophozoite induced Plasmodium berghei in mice (Mus musculus) at dosage of 160 mg/kg after subcutaneous administration; No. of mice (Mus musculus) surviving after 60 days 2; format: functional
[29] = The ratio of SD90 of the quinine hydrochloride, to the SD90 of the test substance for the Dose of 11 mg/kg; format: functional
[30] = The ratio of SD90 of the quinine hydrochloride, to the SD90 of the test substance for the Dose of 80 mg/kg; format: functional
[31] = system: Plasmodium berghei; test: as §1; format: functional; remark: listed apart in the source
[32] = The ratio of SD90 of the quinine hydrochloride, to the SD90 of the test substance for the Dose of >33 mg/kg; format: functional
[33] = The ratio of SD90 of the quinine hydrochloride, to the SD90 of the test substance for the Dose of 6 mg/kg; format: functional
[34] = system: Mus musculus; test: Antimalarial effect against trophozoite-induced Plasmodium berghei in mice (Mus musculus) at dosage of 80 mg/kg after subcutaneous administration; No. of mice (Mus musculus) surviving after 60 days 4; format: functional
[35] = system: Mus musculus; test: Number of mice cured at a dose 320 mg/kg sc; format: functional; conditions: route subcutaneous
[36] = system: Mus musculus; test: Antimalarial effect against trophozoite-induced Plasmodium berghei in mice (Mus musculus) at dosage of 160 mg/kg after subcutaneous administration; No. of mice (Mus musculus) surviving after 60 days 4; format: functional
[37] = The ratio of SD90 of the quinine hydrochloride, to the SD90 of the test substance for the Dose of 37 mg/kg/day; format: functional
[38] = The ratio of SD90 of the quinine hydrochloride, to the SD90 of the test substance for the Dose of 30 mg/kg; format: functional

Compound	SD90 [1] [mg/kg/day]	MST [2] [days]	MST ([4]; 40 mg/kg)	MST [6] [days]	MST [4] [days]	No. of survivals [15]	MST [18] [days]	MST ([19]; 640 mg/kg)	MST ([17]; 160 mg/kg)	further results
CCN1CCC(CNc2nc(Nc3ccc(Cl)c(Cl)c3)nc3ccccc23)CC1	8.4	9.1	7.5 days and 7.3 days	0.7						Ratio [3]: 8.9; MST ([5]; 160 mg/kg): 23.9 days and 27.9 days; No. of cured [7]: 5; No. of cured [8]: 5 and 4
CCOc1ccc(Nc2nc(NCCN(CC)CC)c3cc(Cl)ccc3n2)cc1CN(CC)CC	45	3.2		0.2	0.8					Ratio [9]: 1.6; No. of toxic deaths [10]: 5; No. of toxic deaths [11]: 1; No. of toxic deaths [12]: 4; MST [13]: 5.8 days; MST [5]: 4.3 days
CCN(CC)CCNc1nc(Nc2ccc(OC)c(CN(CC)CC)c2)nc2ccccc12	40	5.6		0.4	2.8	2				Ratio [14]: 1.9; No. of toxic deaths [10]: 1; No. of toxic deaths [12]: 1; No. of survivals [16]: 2; MST [17]: 8.6 days
CCN1CCCC(Nc2nc(Nc3ccc(Cl)cc3)nc3ccccc23)C1 (stereo unspecified)	38	3	0.4 days and 0.6 days	0.2			20	28.3 days and 28.8 days	10.6 days and 11.4 days	Ratio [20]: 2; No. of cured [7]: 3
CCN1CCC(CNc2nc(Nc3ccc(C(F)(F)F)cc3)c3ccccc3n2)CC1				0.3	0.5	4	8.9			MST ([2]; 80 mg/kg): 0.5 days and 0.7 days; MST [21]: 9.4 days; No. of survivals [22]: 1; MST [19]: 21.9 days; MST [5]: 3.9 days; No. of survivals [16]: 3; MST [17]: 7.3 days
Clc1ccc(Nc2nc(NCCCN3CCCC3)c3ccccc3n2)cc1Cl	12				5.2	5				Ratio [23]: 12; No. of survivals [22]: 4
CCN1CCCC(Nc2nc(Nc3cc(Cl)cc(Cl)c3)nc3ccc(Cl)cc23)C1 (stereo unspecified)	36	0.6		0.2	0.2	3	6.4	7.8 days and 4.8 days		MST [24]: 0.4 days; Ratio [25]: 2.1; MST [17]: 1 days
CCN(CC)Cc1cc(Nc2nc(NC3CCC(N(C)C)CC3)c3ccccc3n2)ccc1OC (stereo unspecified)	155		7.7 days and 7.2 days	7.5						No. of toxic deaths [10]: 5; Ratio [26]: 0.5; No. of toxic deaths [12]: 5; MST [5]: 13 days; No. of cured [7]: 3; MST [27]: 13 days; MST [28]: 16.3 days
OC1CCCN(CCCNc2nc(Nc3ccc(Cl)cc3)nc3ccccc23)C1 (stereo unspecified)	11	4.6	2.2 days and 2.5 days	0.2		2	17.5	26.1 days and 23.9 days	10.4 days and 11.3 days	No. of survivals [16]: 2; Ratio [29]: 6.8
Clc1cc(Cl)cc(Nc2nc(NCCN3CCCC3)c3ccccc3n2)c1	80	1.7	0.9 days and 1.3 days	0.5			5.9		3.5 days and 4.1 days	Ratio [30]: 0.9; MST ([31]; 640 mg/kg): 10.7 days and 10.3 days
CCOc1ccc(Nc2nc(NCCN(CC)CC)c3cc(Cl)ccc3n2)cc1CN1CCCC1	>33	1	0.6 days and 0.2 days	0.2			7.8	13.3 days and 12.8 days	4.8 days and 4.6 days	No. of toxic deaths [10]: 3; No. of toxic deaths [12]: 2; Ratio [32]: <2.3
CN1CCCC1CCNc1nc(Nc2cccc(Br)c2)nc2ccccc12 (stereo unspecified)	6	7.8	5.2 days and 4.5 days	1.6			15	20.3 days and 21.9 days	11.4 days and 11.7 days	Ratio [33]: 12.4; No. of cured ([7]; 640 mg/kg): 3 and 2
CN(C)C1CCC(Nc2nc(Nc3cc(Cl)cc(Cl)c3)nc3ccccc23)CC1 (stereo in doubt; 26)						5				MST ([2]; 80 mg/kg): 11.6 days and 9 days; MST ([18]; 320 mg/kg): 27.8 days; No. of survivals ([22]; 160 mg/kg): 2 and 4; MST [34]: 23.9 days; No. of survivals [35]: 4; MST [36]: 27.9 days; MST ([5]; 160 mg/kg): 19.1 days and 24.9 days; No. of survivals [16]: 5; MST ([6]; 20 mg/kg): 3.6 days and 1.7 days
FC(F)(F)c1ccc(Nc2nc(NCCN3CCCC3)c3ccccc3n2)cc1	37	2.4	0.4 days and 0.8 days	0.2			10.2		4.8 days and 3.4 days	Ratio [37]: 2; MST ([31]; 640 mg/kg): 16.2 days and 13.2 days
CCN(CC)CCNc1nc(Nc2ccc(Cl)c(Cl)c2)nc2ccc([N+](=O)[O-])cc12	30		0.4 days and 0.7 days						7 days and 7.3 days	MST ([2]; 80 mg/kg): 1.2 days and 1.5 days; MST ([18]; 320 mg/kg): 10.4 days and 10.9 days; Ratio [38]: 2.5; MST ([6]; 20 mg/kg): 0.2 days and 0.3 days; MST [31]: 20.6 days

— ChEMBL document CHEMBL1121775, “Synthesis and antimalarial effects of N2-aryl-N4-[(dialkylamino)alkyl]- and N4-aryl-N2-[(dialkylamino)alkyl]-2,4-quinazolinediamines” (J Med Chem, 1981)
